Reference: patent US8178658B2 (Dow AgroSciences, LLC, priority 2008, dated 2012)

Key:
[1] = tested on: beet armyworm (BAW; Spodoptera exigua: Lepidoptera); experiment: 96-well microtiter plate-based high throughput (HTS) diet bioassay on beet armyworm (BAW HTS); type: in vivo; conditions: BAW eggs, 12 μg test compound per well, mortality at 6 d post-treatment, mortality class
Outline: (§1)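 Two diet-incorporation-style surface tests were run. Eggs infested treated diet (12 μg/well) in plates incubated dark at 29° C, with mortality taken on day 6 from six replicates. Separately, second-instar larvae fed on treated diet (50 μg/cm^2) at 25° C, 14:10 L:D, with six-day mortality averaged over eight wells.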

[2] = tested on: beet armyworm (BAW; Spodoptera exigua: Lepidoptera); experiment: 128-well diet tray assay on beet armyworm (BAW 50); type: in vivo; conditions: 128-well diet tray assay; 50 μg/cm^2 of test compound on diet; second instar BAW larvae; mortality class
Outline: as §1

[3] = 96-well microtiter plate HTS diet assay

Structure (SMILES)	BAW HTS ([1]; 96-well HTS diet bioassay)	BAW HTS [1, 3]	BAW 50 ug/cm2 [2]
COC1C(C)OC(ON=Cc2ccc(-c3ccn(-c4ccc(OC(F)(F)F)cc4)c3)cc2)C(OC)C1OC (stereo not drawn) [Compound 67]	B (either (1) the compound was tested and less than 50 percent mortality was observed or (2) the compound was not tested)	B (either (1) the compound was tested and less than 50 percent mortality was observed or (2) the compound was not tested)	A (the compound was tested and at least 50 percent mortality was observed)
CCOC1C(OC)C(C)OC(ON=Cc2ccc(C3=NC(c4ccc(OC(F)(F)F)cc4)CO3)cc2)C1OC (stereo not drawn) [Compound 68]	B (either (1) the compound was tested and less than 50 percent mortality was observed or (2) the compound was not tested)	B (either (1) the compound was tested and less than 50 percent mortality was observed or (2) the compound was not tested)	A (the compound was tested and at least 50 percent mortality was observed)
CO[C@@H]1[C@@H](OC)[C@H](C)O[C@@H](O/N=C/c2ccc(-n3cnc(-c4ccc(Cl)cn4)n3)cc2)[C@@H]1OC [Compound 69]	B (either (1) the compound was tested and less than 50 percent mortality was observed or (2) the compound was not tested)	B (either (1) the compound was tested and less than 50 percent mortality was observed or (2) the compound was not tested)	B (either (1) the compound was tested and less than 50 percent mortality was observed or (2) the compound was not tested)
CO[C@@H]1[C@@H](OC)[C@H](C)O[C@@H](O/N=C/c2ccc(-n3cnc(-c4ccccc4F)n3)cc2)[C@@H]1OC [Compound 70]	A (the compound was tested and at least 50 percent mortality was observed)	A (the compound was tested and at least 50 percent mortality was observed)	B (either (1) the compound was tested and less than 50 percent mortality was observed or (2) the compound was not tested)
CO[C@@H]1[C@@H](OC)[C@H](C)O[C@@H](O/N=C/c2ccc(-n3cnc(-c4cccnc4)n3)cc2)[C@@H]1OC [Compound 71]	A (the compound was tested and at least 50 percent mortality was observed)	A (the compound was tested and at least 50 percent mortality was observed)	B (either (1) the compound was tested and less than 50 percent mortality was observed or (2) the compound was not tested)
COC1C(C)OC(ON=Cc2ccc(-n3cnc(-c4ccc(C(F)(F)F)cc4)n3)cc2)C(OC)C1OC (stereo not drawn) [Compound 72]	A (the compound was tested and at least 50 percent mortality was observed)	A (the compound was tested and at least 50 percent mortality was observed)	A (the compound was tested and at least 50 percent mortality was observed)
CO[C@@H]1[C@@H](OC)[C@H](C)O[C@@H](O/N=C/c2ccc(C3=NN(c4ccccc4)CC3)cc2)[C@@H]1OC [Compound 73]	B (either (1) the compound was tested and less than 50 percent mortality was observed or (2) the compound was not tested)	B (either (1) the compound was tested and less than 50 percent mortality was observed or (2) the compound was not tested)	A (the compound was tested and at least 50 percent mortality was observed)
CCCOC1C(OC)C(C)OC(ON=Cc2ccc(-n3cnc(-c4ccc(C(F)(F)F)cc4)n3)cc2)C1OC (stereo not drawn) [Compound 74]	B (either (1) the compound was tested and less than 50 percent mortality was observed or (2) the compound was not tested)	B (either (1) the compound was tested and less than 50 percent mortality was observed or (2) the compound was not tested)	A (the compound was tested and at least 50 percent mortality was observed)
COC1C(C)OC(ON=Cc2ccc(-c3cn(-c4ccc(Cl)cc4)nn3)cc2)C(OC)C1OC (stereo not drawn) [Compound 75]	A (the compound was tested and at least 50 percent mortality was observed)	A (the compound was tested and at least 50 percent mortality was observed)	B (either (1) the compound was tested and less than 50 percent mortality was observed or (2) the compound was not tested)
COC1C(C)OC(ON=Cc2ccc(-c3cn(-c4ccc(C)cc4)nn3)cc2)C(OC)C1OC (stereo not drawn) [Compound 76]	B (either (1) the compound was tested and less than 50 percent mortality was observed or (2) the compound was not tested)	B (either (1) the compound was tested and less than 50 percent mortality was observed or (2) the compound was not tested)	B (either (1) the compound was tested and less than 50 percent mortality was observed or (2) the compound was not tested)
COc1ccc(-n2cc(-c3ccc(C=NOC4OC(C)C(OC)C(OC)C4OC)cc3)nn2)cc1 (stereo not drawn) [Compound 77]	B (either (1) the compound was tested and less than 50 percent mortality was observed or (2) the compound was not tested)	B (either (1) the compound was tested and less than 50 percent mortality was observed or (2) the compound was not tested)	B (either (1) the compound was tested and less than 50 percent mortality was observed or (2) the compound was not tested)
COC1C(C)OC(ON=Cc2ccc(-c3cn(-c4ccc(C(F)(F)F)cc4)nn3)cc2)C(OC)C1OC (stereo not drawn) [Compound 78]	B (either (1) the compound was tested and less than 50 percent mortality was observed or (2) the compound was not tested)	B (either (1) the compound was tested and less than 50 percent mortality was observed or (2) the compound was not tested)	A (the compound was tested and at least 50 percent mortality was observed)
COC1C(C)OC(ON=Cc2ccc(-c3cn(-c4ccc(OC(F)(F)F)cc4)nn3)cc2)C(OC)C1OC (stereo not drawn) [Compound 79]	B (either (1) the compound was tested and less than 50 percent mortality was observed or (2) the compound was not tested)	B (either (1) the compound was tested and less than 50 percent mortality was observed or (2) the compound was not tested)	A (the compound was tested and at least 50 percent mortality was observed)
CO[C@@H]1[C@@H](OC)[C@H](C)O[C@@H](O/N=C/c2ccc(-c3ncn(-c4ccc(C(F)(F)F)cc4)n3)cc2)[C@@H]1OC [Compound 80]	A (the compound was tested and at least 50 percent mortality was observed)	A (the compound was tested and at least 50 percent mortality was observed)	A (the compound was tested and at least 50 percent mortality was observed)
CCCCc1ccc(-n2cnc(-c3ccc(C=NOC4OC(C)C(OC)C(OC)C4OC)cc3)n2)cc1 (stereo not drawn) [Compound 81]	A (the compound was tested and at least 50 percent mortality was observed)	A (the compound was tested and at least 50 percent mortality was observed)	A (the compound was tested and at least 50 percent mortality was observed)
COC1C(C)OC(ON=Cc2ccc(-c3ncn(-c4ccc(OC(F)(F)F)cc4)n3)cc2)C(OC)C1OC (stereo not drawn) [Compound 82]	B (either (1) the compound was tested and less than 50 percent mortality was observed or (2) the compound was not tested)	B (either (1) the compound was tested and less than 50 percent mortality was observed or (2) the compound was not tested)	A (the compound was tested and at least 50 percent mortality was observed)
COC1C(C)OC(ON=Cc2ccc(-c3ncn(-c4ccc(C(C)C)cc4)n3)cc2)C(OC)C1OC (stereo not drawn) [Compound 83]	B (either (1) the compound was tested and less than 50 percent mortality was observed or (2) the compound was not tested)	B (either (1) the compound was tested and less than 50 percent mortality was observed or (2) the compound was not tested)	A (the compound was tested and at least 50 percent mortality was observed)
COC1C(C)OC(ON=Cc2ccc(-c3ncn(-c4ccc(Cl)cc4)n3)cc2)C(OC)C1OC (stereo not drawn) [Compound 84]	B (either (1) the compound was tested and less than 50 percent mortality was observed or (2) the compound was not tested)	B (either (1) the compound was tested and less than 50 percent mortality was observed or (2) the compound was not tested)	A (the compound was tested and at least 50 percent mortality was observed)
COc1ccc(-n2cnc(-c3ccc(C=NOC4OC(C)C(OC)C(OC)C4OC)cc3)n2)cc1 (stereo not drawn) [Compound 85]	B (either (1) the compound was tested and less than 50 percent mortality was observed or (2) the compound was not tested)	B (either (1) the compound was tested and less than 50 percent mortality was observed or (2) the compound was not tested)	A (the compound was tested and at least 50 percent mortality was observed)
